Laboratory results: article PMC10924921, “Mi-2β promotes immune evasion in melanoma by activating EZH2 methylation” (Nature Communications, 2024)

Legend:
Experiment in all cases: biochemical
Set-up in all cases: KINOMEscan active-site competition binding panel (468 kinase assays), per cent of control at 1000 nM
Conditions in all cases: KINOMEscan per cent of control (binding competition); read-out: Percent Control
ASK1 = target: T1, ASK1 (Homo sapiens, UniProt Q99683)
T1 construct: gene MAP3K5
Source text: (§1) Figure S7 / Percent Control

CAMK1 = CAMK1 (Homo sapiens, UniProt Q14012)
CAMK1, sequence (Q14012 whole entry): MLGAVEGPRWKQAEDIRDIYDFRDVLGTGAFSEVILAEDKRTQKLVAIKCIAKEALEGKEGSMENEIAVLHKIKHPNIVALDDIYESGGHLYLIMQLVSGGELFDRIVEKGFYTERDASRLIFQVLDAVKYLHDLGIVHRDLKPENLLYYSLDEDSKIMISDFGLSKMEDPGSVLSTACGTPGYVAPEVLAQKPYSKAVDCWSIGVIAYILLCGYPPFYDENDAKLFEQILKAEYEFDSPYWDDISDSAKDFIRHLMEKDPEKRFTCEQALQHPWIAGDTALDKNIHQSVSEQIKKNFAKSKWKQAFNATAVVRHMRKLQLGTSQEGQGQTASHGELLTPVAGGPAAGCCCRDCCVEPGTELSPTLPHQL
Source text: as §1

CDK4-cyclinD1 = target: T2, CDK4-cyclinD1 (Homo sapiens, UniProt P11802)
T2 construct: cyclinD1
Source text: as §1

CDK9 = CDK9 (Homo sapiens, UniProt P50750)
CDK9, sequence (P50750 whole entry): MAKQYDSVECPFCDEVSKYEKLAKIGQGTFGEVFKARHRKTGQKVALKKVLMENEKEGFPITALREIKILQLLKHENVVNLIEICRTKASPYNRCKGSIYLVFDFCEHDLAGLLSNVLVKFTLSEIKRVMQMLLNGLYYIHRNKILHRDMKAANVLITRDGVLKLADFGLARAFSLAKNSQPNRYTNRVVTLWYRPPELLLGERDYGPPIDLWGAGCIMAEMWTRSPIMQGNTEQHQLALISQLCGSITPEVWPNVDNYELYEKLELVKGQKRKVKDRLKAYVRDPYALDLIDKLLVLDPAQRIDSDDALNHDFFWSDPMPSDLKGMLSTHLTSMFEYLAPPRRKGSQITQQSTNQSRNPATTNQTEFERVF
Source text: as §1

CHEK1 = CHEK1 (Homo sapiens, UniProt O14757)
CHEK1, sequence (O14757 whole entry): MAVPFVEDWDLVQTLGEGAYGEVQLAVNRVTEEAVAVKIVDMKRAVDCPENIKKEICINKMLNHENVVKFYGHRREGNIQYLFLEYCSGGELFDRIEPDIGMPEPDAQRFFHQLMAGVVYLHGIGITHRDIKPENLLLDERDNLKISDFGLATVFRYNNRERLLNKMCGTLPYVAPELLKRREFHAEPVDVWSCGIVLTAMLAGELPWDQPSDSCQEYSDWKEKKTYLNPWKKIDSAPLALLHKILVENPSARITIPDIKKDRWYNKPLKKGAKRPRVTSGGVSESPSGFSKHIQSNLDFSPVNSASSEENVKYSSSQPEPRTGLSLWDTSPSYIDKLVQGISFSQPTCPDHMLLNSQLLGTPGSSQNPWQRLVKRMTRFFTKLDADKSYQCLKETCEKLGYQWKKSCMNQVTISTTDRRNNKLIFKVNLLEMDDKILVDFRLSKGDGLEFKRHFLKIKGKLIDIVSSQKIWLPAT
Source text: as §1

EGFR(G719C) = EGFR(G719C) (Homo sapiens, UniProt P00533, G719C)
Source text: as §1

EGFR(L858R) = EGFR(L858R) (Homo sapiens, UniProt P00533, L858R)
Source text: as §1

FGFR3 = FGFR3 (Homo sapiens, UniProt P22607)
Source text: as §1

FLT3(ITD,F691L) = FLT3(ITD,F691L) (Homo sapiens, UniProt P36888, F691L/ITD)
Source text: as §1

FLT3(R834Q) = FLT3(R834Q) (Homo sapiens, UniProt P36888, R834Q)
Source text: as §1

GCN2(Kin.Dom.2,S808G) = target: T3, GCN2(Kin.Dom.2,S808G) (Homo sapiens, UniProt Q9P2K8, S808G)
T3 construct: gene EIF2AK4; Kin.Dom.2
Source text: as §1

HIPK3 = HIPK3 (Homo sapiens, UniProt Q9H422)
Source text: as §1

MEK1 = target: T4, MEK1 (Homo sapiens, UniProt Q02750)
T4 construct: gene MAP2K1
Source text: as §1

MKK7 = target: T5, MKK7 (Homo sapiens, UniProt O14733)
T5 construct: gene MAP2K7
Source text: as §1

NEK7 = NEK7 (Homo sapiens, UniProt Q8TDX7)
Source text: as §1

PIKFYVE = PIKFYVE (Homo sapiens, UniProt Q9Y2I7)
Source text: as §1

PLK1 = PLK1 (Homo sapiens, UniProt P53350)
Source text: as §1

PRKR = target: T6, PRKR (Homo sapiens, UniProt P19525)
T6 construct: gene EIF2AK2
T6 sequence (P19525 whole entry): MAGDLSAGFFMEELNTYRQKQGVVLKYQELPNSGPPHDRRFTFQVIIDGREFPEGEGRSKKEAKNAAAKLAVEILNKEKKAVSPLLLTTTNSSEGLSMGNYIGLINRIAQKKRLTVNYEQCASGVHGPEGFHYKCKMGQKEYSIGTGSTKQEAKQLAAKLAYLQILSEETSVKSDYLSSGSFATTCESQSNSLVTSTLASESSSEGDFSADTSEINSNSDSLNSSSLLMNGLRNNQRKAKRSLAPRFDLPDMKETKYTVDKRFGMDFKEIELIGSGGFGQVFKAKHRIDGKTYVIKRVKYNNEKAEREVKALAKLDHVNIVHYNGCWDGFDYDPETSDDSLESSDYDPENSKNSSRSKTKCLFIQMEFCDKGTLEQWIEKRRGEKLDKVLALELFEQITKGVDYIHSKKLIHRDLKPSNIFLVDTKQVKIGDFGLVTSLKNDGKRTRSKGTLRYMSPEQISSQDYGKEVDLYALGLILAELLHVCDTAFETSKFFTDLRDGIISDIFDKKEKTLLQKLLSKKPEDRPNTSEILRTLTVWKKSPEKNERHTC
Source text: as §1

RIOK3 = RIOK3 (Homo sapiens, UniProt O14730)
Source text: as §1

ROCK1 = ROCK1 (Homo sapiens, UniProt Q13464)
Source text: as §1

SNARK = target: T7, SNARK (Homo sapiens, UniProt Q9H093)
T7 construct: gene NUAK2
T7 sequence (Q9H093 whole entry): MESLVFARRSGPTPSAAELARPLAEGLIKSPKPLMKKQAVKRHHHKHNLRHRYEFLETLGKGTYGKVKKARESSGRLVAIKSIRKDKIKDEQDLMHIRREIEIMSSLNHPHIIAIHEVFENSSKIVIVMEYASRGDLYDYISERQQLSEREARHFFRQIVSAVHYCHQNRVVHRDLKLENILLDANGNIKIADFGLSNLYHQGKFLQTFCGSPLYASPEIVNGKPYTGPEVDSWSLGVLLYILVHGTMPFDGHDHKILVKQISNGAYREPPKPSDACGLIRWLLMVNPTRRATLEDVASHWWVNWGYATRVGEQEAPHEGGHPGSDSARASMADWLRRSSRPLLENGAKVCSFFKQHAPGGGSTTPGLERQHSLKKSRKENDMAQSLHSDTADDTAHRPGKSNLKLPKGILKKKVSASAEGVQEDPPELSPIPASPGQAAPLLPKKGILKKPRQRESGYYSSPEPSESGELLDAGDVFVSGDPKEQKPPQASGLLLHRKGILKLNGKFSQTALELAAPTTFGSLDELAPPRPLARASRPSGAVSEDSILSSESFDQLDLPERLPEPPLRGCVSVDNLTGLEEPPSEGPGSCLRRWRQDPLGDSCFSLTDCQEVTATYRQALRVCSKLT
Source text: as §1

SYK = SYK (Homo sapiens, UniProt P43405)
Source text: as §1

ULK2 = ULK2 (Homo sapiens, UniProt Q8IYT8)
Source text: as §1

WNK1 = WNK1 (Homo sapiens, UniProt Q9H4A3)
WNK1, sequence (Q9H4A3 whole entry): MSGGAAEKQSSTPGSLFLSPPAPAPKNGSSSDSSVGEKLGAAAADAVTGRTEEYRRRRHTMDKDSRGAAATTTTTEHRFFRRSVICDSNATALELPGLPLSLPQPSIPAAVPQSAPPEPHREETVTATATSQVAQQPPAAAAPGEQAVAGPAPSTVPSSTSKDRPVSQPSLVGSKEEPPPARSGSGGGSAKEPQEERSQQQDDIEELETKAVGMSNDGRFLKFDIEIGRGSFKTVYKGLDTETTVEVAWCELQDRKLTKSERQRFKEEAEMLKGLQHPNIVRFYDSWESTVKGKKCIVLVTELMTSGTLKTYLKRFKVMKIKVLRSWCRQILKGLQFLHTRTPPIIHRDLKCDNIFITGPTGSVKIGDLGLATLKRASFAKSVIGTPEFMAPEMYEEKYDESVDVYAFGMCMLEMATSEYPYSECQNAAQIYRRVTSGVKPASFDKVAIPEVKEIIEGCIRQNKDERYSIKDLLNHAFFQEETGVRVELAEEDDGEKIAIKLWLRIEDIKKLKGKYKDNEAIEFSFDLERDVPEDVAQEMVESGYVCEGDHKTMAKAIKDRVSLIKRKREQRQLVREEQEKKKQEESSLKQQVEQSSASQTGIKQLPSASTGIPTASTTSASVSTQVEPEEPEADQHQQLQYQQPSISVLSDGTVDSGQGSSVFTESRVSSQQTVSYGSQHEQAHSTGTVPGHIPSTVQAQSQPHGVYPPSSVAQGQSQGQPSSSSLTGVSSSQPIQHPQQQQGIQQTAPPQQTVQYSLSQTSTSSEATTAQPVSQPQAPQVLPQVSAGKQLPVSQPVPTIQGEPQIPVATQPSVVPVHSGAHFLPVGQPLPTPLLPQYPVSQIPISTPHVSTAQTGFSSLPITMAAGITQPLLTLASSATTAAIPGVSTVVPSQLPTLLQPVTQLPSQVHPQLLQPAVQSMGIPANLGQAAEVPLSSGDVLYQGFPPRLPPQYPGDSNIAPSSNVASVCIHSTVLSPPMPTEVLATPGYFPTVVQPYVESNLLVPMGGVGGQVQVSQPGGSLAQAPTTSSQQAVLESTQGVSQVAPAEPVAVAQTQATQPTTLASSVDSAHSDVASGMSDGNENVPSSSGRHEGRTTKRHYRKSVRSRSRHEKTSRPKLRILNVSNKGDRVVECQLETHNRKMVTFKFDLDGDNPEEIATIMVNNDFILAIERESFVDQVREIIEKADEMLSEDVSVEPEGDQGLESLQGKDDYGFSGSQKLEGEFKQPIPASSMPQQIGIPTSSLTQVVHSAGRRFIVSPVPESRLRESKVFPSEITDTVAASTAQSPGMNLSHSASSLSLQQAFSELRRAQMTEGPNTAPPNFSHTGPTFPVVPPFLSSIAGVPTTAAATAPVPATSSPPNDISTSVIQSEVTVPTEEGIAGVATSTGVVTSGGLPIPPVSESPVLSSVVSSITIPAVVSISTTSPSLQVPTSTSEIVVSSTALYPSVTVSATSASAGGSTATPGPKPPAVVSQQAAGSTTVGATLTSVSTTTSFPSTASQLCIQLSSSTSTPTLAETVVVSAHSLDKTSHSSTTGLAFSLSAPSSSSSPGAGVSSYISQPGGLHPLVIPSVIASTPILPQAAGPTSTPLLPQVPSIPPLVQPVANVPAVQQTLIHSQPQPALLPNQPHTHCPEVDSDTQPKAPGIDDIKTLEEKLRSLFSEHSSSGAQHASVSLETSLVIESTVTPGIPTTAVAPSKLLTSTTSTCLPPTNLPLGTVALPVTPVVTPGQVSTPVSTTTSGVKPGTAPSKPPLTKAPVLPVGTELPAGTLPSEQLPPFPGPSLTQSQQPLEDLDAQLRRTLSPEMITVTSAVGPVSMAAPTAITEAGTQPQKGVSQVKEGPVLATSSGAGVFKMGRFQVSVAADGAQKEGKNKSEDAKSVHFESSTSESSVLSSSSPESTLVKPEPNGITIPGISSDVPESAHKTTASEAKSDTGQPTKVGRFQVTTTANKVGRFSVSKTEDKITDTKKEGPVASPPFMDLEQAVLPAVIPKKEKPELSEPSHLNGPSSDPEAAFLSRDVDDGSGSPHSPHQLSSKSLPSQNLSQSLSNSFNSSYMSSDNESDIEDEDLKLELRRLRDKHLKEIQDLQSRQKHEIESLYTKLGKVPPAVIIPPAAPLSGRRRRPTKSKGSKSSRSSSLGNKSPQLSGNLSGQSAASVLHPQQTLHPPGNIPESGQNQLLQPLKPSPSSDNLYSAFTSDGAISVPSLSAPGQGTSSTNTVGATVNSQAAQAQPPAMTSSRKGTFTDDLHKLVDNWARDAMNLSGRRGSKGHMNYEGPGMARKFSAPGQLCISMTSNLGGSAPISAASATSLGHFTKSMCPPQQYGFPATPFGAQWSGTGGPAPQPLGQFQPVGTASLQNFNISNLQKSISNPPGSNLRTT
Source text: as §1

Structure (SMILES): Cn1c(=O)[nH]c2ccc(-c3cccc(C(=O)NC4CCn5ccnc5C4)c3)cc21 (stereo not drawn) [Z36-MP5]
- remaining binding at 1 µM (ASK1): 75%
- remaining binding at 1 µM (CAMK1): 91%
- remaining binding at 1 µM (CDK4-cyclinD1): 67%
- remaining binding at 1 µM (CDK9): 37%
- remaining binding at 1 µM (CHEK1): 93%
- remaining binding at 1 µM (EGFR(G719C)): 79%
- remaining binding at 1 µM (EGFR(L858R)): 99%
- remaining binding at 1 µM (FGFR3): 84%
- remaining binding at 1 µM (FLT3(ITD,F691L)): 57%
- remaining binding at 1 µM (FLT3(R834Q)): 40%
- remaining binding at 1 µM (GCN2(Kin.Dom.2,S808G)): 94%
- remaining binding at 1 µM (HIPK3): 61%
- remaining binding at 1 µM (MEK1): 63%
- remaining binding at 1 µM (MKK7): 72%
- remaining binding at 1 µM (NEK7): 89%
- remaining binding at 1 µM (PIKFYVE): 96%
- remaining binding at 1 µM (PLK1): 70%
- remaining binding at 1 µM (PRKR): 99%
- remaining binding at 1 µM (RIOK3): 100%
- remaining binding at 1 µM (ROCK1): 54%
- remaining binding at 1 µM (SNARK): 64%
- remaining binding at 1 µM (SYK): 57%
- remaining binding at 1 µM (ULK2): 59%
- remaining binding at 1 µM (WNK1): 59%
